The NIST ThermoML archive (doi:10.1016/j.jct.2018.11.020)
Numbers after ± are expanded uncertainties.

Legend:
[1] = 101.33 kPa, Liquid; for viscosity: Concentric cylinders viscometry; for mass density: Vibrating tube method
[2] = refractive index (Na D-line) (dimensionless); conditions: 101.33 kPa, Liquid, Standard Abbe refractometry

Cc1ccccc1 [toluene]
Conditions	mass density, [1] [kg/m3]	refractive index, [2]	viscosity, [1] [mPa·s]
288.15 K	871.5 ± 1	1.49921 ± 0.00036	0.6284 ± 0.014
293.15 K	866.84 ± 1	1.49631 ± 0.00036	0.5926 ± 0.013
298.15 K	862.18 ± 1	1.49338 ± 0.00036	0.5698 ± 0.013
303.15 K	857.51 ± 1	1.49042 ± 0.00036	0.541 ± 0.012
308.15 K	852.83 ± 1	1.48751 ± 0.00036	0.514 ± 0.011
313.15 K	848.15 ± 1	1.48461 ± 0.00036	0.4854 ± 0.011
318.15 K	843.44 ± 1	1.48171 ± 0.00036	0.4646 ± 0.01
323.15 K	838.73 ± 1	1.47889 ± 0.00036	0.4421 ± 0.01
328.15 K	834 ± 1	1.47596 ± 0.00036	0.4209 ± 0.0097
333.15 K	829.25 ± 1	1.47305 ± 0.00036	0.4035 ± 0.0094

Cc1cccc(C)c1 [1,3-dimethylbenzene]
Conditions	mass density, [1] [kg/m3]	refractive index, [2]	viscosity, [1] [mPa·s]
288.15 K	868.56 ± 1	1.49868 ± 0.0004	0.6601 ± 0.015
293.15 K	864.27 ± 1	1.49604 ± 0.0004	0.6322 ± 0.014
298.15 K	859.98 ± 1	1.49339 ± 0.0004	0.5969 ± 0.013
303.15 K	855.68 ± 1	1.49074 ± 0.0004	0.5674 ± 0.013
308.15 K	851.36 ± 1	1.4881 ± 0.0004	0.5396 ± 0.012
313.15 K	847.03 ± 1	1.48545 ± 0.0004	0.5112 ± 0.012
318.15 K	842.69 ± 1	1.4828 ± 0.0004	0.4888 ± 0.011
323.15 K	838.33 ± 1	1.48017 ± 0.0004	0.4657 ± 0.011
328.15 K	833.95 ± 1	1.47757 ± 0.0004	0.4439 ± 0.01
333.15 K	829.56 ± 1	1.47489 ± 0.0004	0.4273 ± 0.01

Cc1ccccc1C [1,2-dimethylbenzene]
Conditions	mass density, [1] [kg/m3]	refractive index, [2]	viscosity, [1] [mPa·s]
288.15 K	883.91 ± 1	1.50706 ± 0.0004	0.869 ± 0.019
293.15 K	879.72 ± 1	1.5044 ± 0.0004	0.8175 ± 0.018
298.15 K	875.51 ± 1	1.50173 ± 0.0004	0.7661 ± 0.017
303.15 K	871.3 ± 1	1.49906 ± 0.0004	0.722 ± 0.016
308.15 K	867.07 ± 1	1.49644 ± 0.0004	0.6809 ± 0.015
313.15 K	862.83 ± 1	1.49383 ± 0.0004	0.6437 ± 0.014
318.15 K	858.57 ± 1	1.49124 ± 0.0004	0.608 ± 0.014
323.15 K	854.3 ± 1	1.48869 ± 0.0004	0.5757 ± 0.013
328.15 K	850.01 ± 1	1.48604 ± 0.0004	0.5458 ± 0.012
333.15 K	845.71 ± 1	1.48345 ± 0.0004	0.5221 ± 0.012

Cc1ccc(C)cc1 [1,4-dimethylbenzene]
Conditions	mass density, [1] [kg/m3]	refractive index, [2]	viscosity, [1] [mPa·s]
288.15 K	865.31 ± 1	1.4977 ± 0.0004	0.6862 ± 0.015
293.15 K	860.97 ± 1	1.49493 ± 0.0004	0.6515 ± 0.015
298.15 K	856.63 ± 1	1.49221 ± 0.0004	0.6168 ± 0.014
303.15 K	852.27 ± 1	1.48939 ± 0.0004	0.5848 ± 0.013
308.15 K	847.91 ± 1	1.48658 ± 0.0004	0.5548 ± 0.013
313.15 K	843.53 ± 1	1.48391 ± 0.0004	0.5247 ± 0.012
318.15 K	839.14 ± 1	1.48126 ± 0.0004	0.5001 ± 0.011
323.15 K	834.74 ± 1	1.47853 ± 0.0004	0.4753 ± 0.011
328.15 K	830.32 ± 1	1.47608 ± 0.0004	0.4521 ± 0.01
333.15 K	825.88 ± 1	1.47328 ± 0.0004	0.4342 ± 0.01
